Test results from US20250360132A1, “METHODS OF ADMINISTERING MYOSIN INHIBITORS” (MYOKARDIA, INC., priority 2022, published 2025).

Key:
[1] = test system: pregnant rabbits; assay: Embryo-fetal development study in rabbits; assay type: in vivo, rabbit
Method: Visceral findings consisted of malformations of the great vessels (dilatation of pulmonary trunk and/or aortic arch). Skeletal malformations consisted of higher incidences of fused sternebrae at ≥1.2 mg/kg/day. Plasma exposure (AUC) at the no-effect dose for embryo-fetal development in rabbits is 0.4 times the exposure in humans at the MRHD.

[2] = test system: rat; assay: Rat in vivo micronucleus assay
From the text: Mavacamten was not genotoxic in a bacterial reverse mutation test (Ames test), a human in vitro lymphocyte […] assay, or a rat in vivo micronucleus assay.

[3] = test system: dogs; assay: Animal toxicology, dogs; assay type: in vivo
Method: The safety of mavacamten has been evaluated in rats and dogs at multiple dose levels (0.06 to 10 mg/kg/day) orally. […] Plasma exposures (AUC) at the NOAEL in rats and dogs were 0.1 and 0.3 times, respectively, human exposure (AUC) at the MRHD.

For CC(C)n1c(=O)cc(N[C@@H](C)c2ccccc2)[nH]c1=O [mavacamten, (S)-3-Isopropyl-6-((1-phenylethyl)amino)pyrimidine-2,4(1H,3H)-dione], the “Embryo-fetal findings (risk summary)” value ([1]; both rabbits and rats, dose exposures similar to that at the MRHD) was “increases in visceral and skeletal malformations”, the “Doses at which fetal malformations (visceral and skeletal) were increased” value ([1]; oral, period of organogenesis) was no less than 1.2 mg/kg/day and the “Plasma exposure (AUC) at the no-effect dose for embryo-fetal development vs humans at the MRHD” value ([1]; rabbits) was 0.4 times. For the same compound, the “Genotoxicity, rat in vivo micronucleus assay” value [2] was “not genotoxic” and the “Plasma exposure (AUC) at the NOAEL vs human exposure at the MRHD” value [3] was 0.3 times.
